Tests used:
[1] = test system: southern sandbur (CCHEC); test: Test 11 field trial, preemergence; type: in vivo, Cenchrus echinatus; parameters: scale not given here; conditions: alone or + atrazine 1500 or metolachlor 2500
Text: (§1) Corn seeds (hybrid ‘Pioneer 3041’) were planted in mid spring season, 5 cm deep in a clay soil having 2.6% organic matter and a pH of 5.6. Plots were 8 m long by 1.5 m wide with rows spaced 80 cm apart. Seeds were spaced 15 cm apart within the rows. The field was managed using conventional tillage practices. […] Treatments consisted of Compound 2 or
(§2) Goosegrass was not evaluated 16 or 91 days after application.

[2] = test system: tropical spiderwort (COMBE); test: Test 11 field trial, preemergence; type: in vivo, Commelina benghalensis; parameters: scale not given here; conditions: alone or + atrazine 1500 or metolachlor 2500
Text: as §1, §2

[3] = test system: Ipomoea grandiflora (IPOGF); test: Test 11 field trial, preemergence; type: in vivo
Text: as §1, §2

[4] = test system: corn (ZEAMD); test: Test 1 field trial, preemergence; type: in vivo, Zea mays ssp. indentata; parameters: scale not given here; conditions: g a.i./ha: Atrazine 1680, S-Metolachlor 1870
Text: (§3) Corn seeds (hybrid ‘Pioneer 34N43’) were planted in mid spring season, 3.8 cm deep in a silt loam soil having 4.6% organic matter and a pH of 6. Plots were 10.7 m long by 1.5 m wide with rows spaced 76 cm apart. Seeds were spaced 18 cm apart within the rows. The field was managed using conventional tillage practices. […] Results are summarized in Table 1 and are the means of the three replicates. […] Colby's Equation (Colby, S. R. “Calculating Synergistic and Antagonistic Responses of Herbicide Combinations,” Weeds, 15(1), pp 20-22 (1967)) calculates the expected additive effect of herbicidal mixtures, and for two active ingredients is of the form:
(§4) Pa+b=Pa+Pb−(PaPb/100) • wherein Pa+b is the percentage effect of the mixture expected from additive contribution of the individual components, • Pa is the observed percentage effect of the first active ingredient at the same use rate as in the mixture, and • Pb is the observed percentage effect of the second active ingredient at the same use rate as in the mixture.

[5] = test system: giant foxtail (SETFA); test: Test 1 field trial, preemergence; type: in vivo, Setaria faberi; conditions: g a.i./ha: Atrazine 1680, S-Metolachlor 1870
Text: as §3, §4

[6] = test system: corn (ZEAMD); test: Test 8 field trial, preemergence; type: in vivo, Zea mays ssp. indentata; conditions: g a.i./ha: Cpd 2 100, Atrazine 1680, S-Metolachlor 1870
Text: (§5) Corn seeds (hybrid ‘Pioneer 31G96’) were planted in mid spring season, 3.8 cm deep in a clay loam soil having 2% organic matter and a pH of 6.6. Plots were 6.1 m long by 3.0 m wide with rows spaced 76 cm apart. Seeds were spaced 15 cm apart within the rows. The field was managed using conventional tillage practices. […] A few of the weed species could not be evaluated at every timing. […] Results are the means of the three replicates.

[7] = test system: redroot pigweed (AMARE); test: Test 8 field trial, preemergence; type: in vivo, Amaranthus retroflexus; conditions: 56 DAA; g a.i./ha: Cpd 2 100, Atrazine 1680, S-Metolachlor 1870
Text: as §5

[8] = test system: jimsonweed (DATST); test: Test 8 field trial, preemergence; type: in vivo, Datura stramonium; conditions: g a.i./ha: Cpd 2 100, Atrazine 1680, S-Metolachlor 1870
Text: as §5

[9] = 16 DAA, Cpd 2/Cpd 1 at 62 g a.i./ha
[10] = 16 DAA, Cpd 2/Cpd 1 at 125 g a.i./ha
[11] = 30 DAA, Cpd 2/Cpd 1 at 62 g a.i./ha
[12] = 30 DAA, Cpd 2/Cpd 1 at 125 g a.i./ha
[13] = 44 DAA, Cpd 2/Cpd 1 at 62 g a.i./ha
[14] = 44 DAA, Cpd 2/Cpd 1 at 125 g a.i./ha
[15] = 62 DAA, Cpd 2/Cpd 1 at 62 g a.i./ha
[16] = 62 DAA, Cpd 2/Cpd 1 at 125 g a.i./ha
[17] = 91 DAA, Cpd 2/Cpd 1 at 62 g a.i./ha
[18] = 91 DAA, Cpd 2/Cpd 1 at 125 g a.i./ha

Nc1nc(C2CC2)nc(C(=O)O)c1Cl [Compound 1, 6-amino-5-chloro-2-cyclopropyl-4-pyrimidinecarboxylic acid]
CCHEC Obs [1, 9]: 40
CCHEC Obs [1, 10]: 40
CCHEC Obs [1, 11]: 20
CCHEC Obs [1, 12]: 20
CCHEC Obs [1, 13]: 0
CCHEC Obs [1, 14]: 40
CCHEC Obs [1, 15]: 0
CCHEC Obs [1, 16]: 0
CCHEC Obs [1, 17]: 0
CCHEC Obs [1, 18]: 0
COMBE Obs [2, 9]: 40
COMBE Obs [2, 10]: 60
COMBE Obs [2, 11]: 60
COMBE Obs [2, 12]: 95
COMBE Obs [2, 13]: 60
COMBE Obs [2, 14]: 95
COMBE Obs [2, 15]: 40
COMBE Obs [2, 16]: 60
COMBE Obs [2, 17]: 0
COMBE Obs [2, 18]: 70
IPOGF Obs ([3]; 16 DAA, Cpd 2/Cpd 1 at 62 g a.i./ha, alone or + atrazine 1500 or metolachlor 2500): 20
IPOGF Obs ([3]; 16 DAA, Cpd 2/Cpd 1 at 125 g a.i./ha, alone or + atrazine 1500 or metolachlor 2500): 40
IPOGF Obs ([3]; 30 DAA, Cpd 2/Cpd 1 at 62 g a.i./ha, alone or + atrazine 1500 or metolachlor 2500): 40
IPOGF Obs ([3]; 30 DAA, Cpd 2/Cpd 1 at 125 g a.i./ha, alone or + atrazine 1500 or metolachlor 2500): 80
IPOGF Obs ([3]; 44 DAA, 62 g a.i./ha, scale 0 to 100): 60
IPOGF Obs ([3]; 44 DAA, 125 g a.i./ha, scale 0 to 100): 80
IPOGF Obs ([3]; 62 DAA, 62 g a.i./ha, scale 0 to 100): 0
IPOGF Obs ([3]; 62 DAA, 125 g a.i./ha, scale 0 to 100): 75
IPOGF Obs ([3]; 91 DAA, 62 g a.i./ha, scale 0 to 100): 0
IPOGF Obs ([3]; 91 DAA, 125 g a.i./ha, scale 0 to 100): 60

CCc1cccc(C)c1N(C(=O)CCl)[C@@H](C)COC [S-Metolachlor, S-metolachlor, reference compound]
ZEAMD Obs ([4]; 28 DAA): 0
ZEAMD Obs ([4]; 56 DAA): 0
SETFA Obs ([5]; 28 DAA): 57
SETFA Obs ([5]; 56 DAA): 100
ZEAMD Obs ([6]; 19 DAA): 0%
ZEAMD Obs ([6]; 29 DAA): 3%
ZEAMD Obs ([6]; 56 DAA): 5%
AMARE Obs [7]: 100%
DATST Obs ([8]; 19 DAA): 40%
DATST Obs ([8]; 29 DAA): 38%
DATST Obs ([8]; 56 DAA): 52%

Reference: patent US20100285959A1, “HERBICIDAL MIXTURES” (priority 2006, published 2010)
